Results reported in publication PMC5218480 (PLoS ONE, 2017).

System: MV-4-11 cells
Assay: Gene expression microarray analysis (Affymetrix PrimeView) and GSEA
Format: cell-based, human
Design: RFU PODN (11730768_x_at) / Fold change /veh PODN (11730768_x_at) / RFU LINC00158 (11744669_a_at) / Fold change /veh LINC00158 (11744669_a_at) / RFU DUSP10 (11751237_a_at) / Fold change /veh DUSP10 (11751237_a_at) / RFU ID3 (11757404_x_at) / Fold change /veh ID3 (11757404_x_at) / RFU PLEKHG5 (11737974_s_at) / Fold change /veh PLEKHG5 (11737974_s_at) / RFU LRRC4B (11730491_at) / Fold change /veh LRRC4B (11730491_at) / RFU GIMAP4 (11747438_a_at) / Fold change /veh GIMAP4 (11747438_a_at) / RFU KRT8 (11758183_x_at) / Fold change /veh KRT8 (11758183_x_at) / RFU CNN1 (11734310_a_at) / Fold change /veh CNN1 (11734310_a_at) / RFU VPS37D (11726825_at) / Fold change /veh VPS37D (11726825_at) / RFU C10orf10 (11716522_x_at) / Fold change /veh C10orf10 (11716522_x_at) / RFU KIR2DL2 /// KIR2DL4 /// KIR2DL5A /// KIR2DL5B /// KIR2DS1 /// KIR2DS2 /// KIR2DS3 /// KIR2DS4 /// KIR3DL3 /// KIR3DL3 /// KIR3DS1 (11738374_at) / Fold change /veh KIR2DL2 /// KIR2DL4 /// KIR2DL5A /// KIR2DL5B /// KIR2DS1 /// KIR2DS2 /// KIR2DS3 /// KIR2DS4 /// KIR3DL3 /// KIR3DL3 /// KIR3DS1 (11738374_at) / RFU C1QL1 (11718748_at) / Fold change /veh C1QL1 (11718748_at) / RFU TMPRSS4 (11747572_a_at) / Fold change /veh TMPRSS4 (11747572_a_at) / RFU HAMP (11756126_x_at) / Fold change /veh HAMP (11756126_x_at) / RFU RNFT2 (11725882_a_at) / Fold change /veh RNFT2 (11725882_a_at) / RFU NR4A2 (11747474_a_at) / Fold change /veh NR4A2 (11747474_a_at) / RFU ABCC12 (11746883_a_at) / Fold change /veh ABCC12 (11746883_a_at) / RFU TMEM136 (11760407_x_at) / Fold change /veh TMEM136 (11760407_x_at) / RFU CLDN22 /// WWC2 (11732394_at) / Fold change /veh CLDN22 /// WWC2 (11732394_at) / RFU HLA-DPB1 (11760878_x_at) / Fold change /veh HLA-DPB1 (11760878_x_at) / RFU SPINT1 (11716480_a_at) / Fold change /veh SPINT1 (11716480_a_at) / RFU GAP43 (11754022_s_at) / Fold change /veh GAP43 (11754022_s_at) / RFU A4GNT (11735810_at) / Fold change /veh A4GNT (11735810_at) / RFU PRB3 (11715151_x_at) / Fold change /veh PRB3 (11715151_x_at) / RFU TUBB4B (11761932_at) / Fold change /veh TUBB4B (11761932_at) / RFU CAPN14 (11732068_a_at) / Fold change /veh CAPN14 (11732068_a_at) / RFU TMCC2 (11721928_a_at) / Fold change /veh TMCC2 (11721928_a_at) / RFU IRGQ (11745062_a_at) / Fold change /veh IRGQ (11745062_a_at) / RFU FAM174B (11720279_a_at) / Fold change /veh FAM174B (11720279_a_at) / RFU TMPRSS4 (11748680_a_at) / Fold change /veh TMPRSS4 (11748680_a_at) / RFU FAM212B (11763350_a_at) / Fold change /veh FAM212B (11763350_a_at) / RFU PLEKHG5 (11743358_a_at) / Fold change /veh PLEKHG5 (11743358_a_at) / RFU ZSCAN30 (11745921_a_at) / Fold change /veh ZSCAN30 (11745921_a_at) / RFU CMKLR1 (11741424_a_at) / Fold change /veh CMKLR1 (11741424_a_at) / RFU LOC101060620 /// MAPK8IP1 (11723275_at) / Fold change /veh LOC101060620 /// MAPK8IP1 (11723275_at) / RFU SPTSSB (11747773_x_at) / Fold change /veh SPTSSB (11747773_x_at) / RFU PRSS12 (11739890_at) / Fold change /veh PRSS12 (11739890_at) / RFU BIN1 (11741810_x_at) / Fold change /veh BIN1 (11741810_x_at) / RFU WNT11 (11732464_a_at) / Fold change /veh WNT11 (11732464_a_at) / RFU C10orf10 (11716521_a_at) / Fold change /veh C10orf10 (11716521_a_at) / RFU C5orf56 (11738089_at) / Fold change /veh C5orf56 (11738089_at) / RFU CYB561 (11721691_x_at) / Fold change /veh CYB561 (11721691_x_at) / RFU ANKRD19P (11752326_a_at) / Fold change /veh ANKRD19P (11752326_a_at) / RFU OR2T12 /// OR2T33 /// OR2T8 (11738714_s_at) / Fold change /veh OR2T12 /// OR2T33 /// OR2T8 (11738714_s_at) / RFU VCAN (11748164_a_at) / Fold change /veh VCAN (11748164_a_at) / RFU JSRP1 (11732532_at) / Fold change /veh JSRP1 (11732532_at) / RFU KRTAP10-11 (11738290_x_at) / Fold change /veh KRTAP10-11 (11738290_x_at) / RFU MYO3A (11730013_a_at) / Fold change /veh MYO3A (11730013_a_at) / RFU EBF3 (11725865_a_at) / Fold change /veh EBF3 (11725865_a_at) / RFU CAMK2N1 (11719241_x_at) / Fold change /veh CAMK2N1 (11719241_x_at) / RFU C5orf56 (11738088_a_at) / Fold change /veh C5orf56 (11738088_a_at) / RFU OLFML3 (11715873_a_at) / Fold change /veh OLFML3 (11715873_a_at) / RFU LOC100653217 /// NTM (11731650_a_at) / Fold change /veh LOC100653217 /// NTM (11731650_a_at) / RFU MAPK11 (11762145_a_at) / Fold change /veh MAPK11 (11762145_a_at) / RFU FIZ1 (11724087_x_at) / Fold change /veh FIZ1 (11724087_x_at) / RFU OASL (11726364_x_at) / Fold change /veh OASL (11726364_x_at) / RFU SOX15 (11748057_x_at) / Fold change /veh SOX15 (11748057_x_at) / RFU CD79A (11719716_a_at) / Fold change /veh CD79A (11719716_a_at) / RFU HIST1H1D (11736915_at) / Fold change /veh HIST1H1D (11736915_at) / RFU CASKIN2 (11723855_a_at) / Fold change /veh CASKIN2 (11723855_a_at) / RFU LOC730098 (11760151_x_at) / Fold change /veh LOC730098 (11760151_x_at) / RFU OR4N2 (11742367_at) / Fold change /veh OR4N2 (11742367_at) / RFU PRRT2 (11749266_a_at) / Fold change /veh PRRT2 (11749266_a_at) / RFU SNX32 (11753110_a_at) / Fold change /veh SNX32 (11753110_a_at) / RFU CDHR5 (11726645_a_at) / Fold change /veh CDHR5 (11726645_a_at) / RFU RCAN1 (11760418_a_at) / Fold change /veh RCAN1 (11760418_a_at) / RFU FAM167A (11723789_a_at) / Fold change /veh FAM167A (11723789_a_at) / RFU FAM26E (11764081_at) / Fold change /veh FAM26E (11764081_at) / RFU ISYNA1 (11749810_s_at) / Fold change /veh ISYNA1 (11749810_s_at) / RFU ACY1 (11761880_at) / Fold change /veh ACY1 (11761880_at) / RFU 11764098_at / Fold change /veh 11764098_at / RFU SAMD14 (11745864_x_at) / Fold change /veh SAMD14 (11745864_x_at) / RFU NPB (11741838_a_at) / Fold change /veh NPB (11741838_a_at) / RFU TMPRSS6 (11731388_a_at) / Fold change /veh TMPRSS6 (11731388_a_at) / RFU KRTAP10-2 (11738614_at) / Fold change /veh KRTAP10-2 (11738614_at) / RFU ARHGAP8 /// PRR5-ARHGAP8 (11727945_x_at) / Fold change /veh ARHGAP8 /// PRR5-ARHGAP8 (11727945_x_at) / RFU KRTAP5-7 /// NADSYN1 (11734609_at) / Fold change /veh KRTAP5-7 /// NADSYN1 (11734609_at) / RFU RASL12 (11751679_a_at) / Fold change /veh RASL12 (11751679_a_at) / RFU CDKN2B (11736163_a_at) / Fold change /veh CDKN2B (11736163_a_at) / RFU PRF1 (11729649_at) / Fold change /veh PRF1 (11729649_at) / RFU, ZNF638 /// ZNF638-IT1 / Fold change vs veh, ZNF638 /// ZNF638-IT1 / RFU, PANK3 / Fold change vs veh, PANK3 / RFU, SH3YL1 / Fold change vs veh, SH3YL1 / RFU, ZEB2 / Fold change vs veh, ZEB2 / RFU, NRIP1 / Fold change vs veh, NRIP1 / RFU, PTTG1IP / Fold change vs veh, PTTG1IP / RFU, CAPN2 / Fold change vs veh, CAPN2 / RFU, MED14 / Fold change vs veh, MED14 / RFU, SNORA58 / Fold change vs veh, SNORA58 / RFU, C1orf63 / Fold change vs veh, C1orf63 / RFU, LRRFIP1 / Fold change vs veh, LRRFIP1 / RFU, NDUFAF7 / Fold change vs veh, NDUFAF7 / RFU, SLC12A2 / Fold change vs veh, SLC12A2 / RFU, IBTK / Fold change vs veh, IBTK / RFU, ESF1 / Fold change vs veh, ESF1 / Fold change vs veh, TMEM50B / RFU, TAOK1 / Fold change vs veh, TAOK1 / RFU, ACBD3 / Fold change vs veh, ACBD3 / RFU, TMA16 / Fold change vs veh, TMA16 / RFU, RWDD3 / Fold change vs veh, RWDD3 / RFU, BCAT1 / Fold change vs veh, BCAT1 / RFU, EDEM3 / Fold change vs veh, EDEM3 / RFU, TMEM33 / Fold change vs veh, TMEM33 / RFU, WDR75 / Fold change vs veh, WDR75 / RFU, AHCTF1 / Fold change vs veh, AHCTF1 / RFU, TFRC / Fold change vs veh, TFRC / RFU, ZDHHC17 / Fold change vs veh, ZDHHC17 / RFU, NOM1 / Fold change vs veh, NOM1 / RFU, ARL8B / Fold change vs veh, ARL8B / RFU, ZBTB11 / Fold change vs veh, ZBTB11 / RFU, TAMM41 / Fold change vs veh, TAMM41 / RFU, KIAA1704 /// LOC100996395 / Fold change vs veh, KIAA1704 /// LOC100996395 / RFU, ING1 / Fold change vs veh, ING1 / RFU, TRMT61B / Fold change vs veh, TRMT61B / RFU, FUBP3 / Fold change vs veh, FUBP3 / RFU, TP53 / Fold change vs veh, TP53 / RFU, TNKS2 / Fold change vs veh, TNKS2 / RFU, ZFP14 / Fold change vs veh, ZFP14 / RFU, ACTR2 / Fold change vs veh, ACTR2 / RFU, PPP3R1 / Fold change vs veh, PPP3R1 / RFU, PIK3R1 / Fold change vs veh, PIK3R1 / RFU, HNRNPA1 / Fold change vs veh, HNRNPA1 / RFU, RNF170 / Fold change vs veh, RNF170 / RFU, ZNF28 / Fold change vs veh, ZNF28 / RFU, RNGTT / Fold change vs veh, RNGTT / RFU, OGT / Fold change vs veh, OGT / RFU, BRD1 / Fold change vs veh, BRD1 / RFU, MARS / Fold change vs veh, MARS / RFU, ZNF655 / Fold change vs veh, ZNF655 / RFU, FAHD1 / Fold change vs veh, FAHD1 / RFU, BDP1 / Fold change vs veh, BDP1 / RFU, LRRCC1 / Fold change vs veh, LRRCC1 / RFU, ARID1A / Fold change vs veh, ARID1A / RFU, ZNF146 / Fold change vs veh, ZNF146 / RFU, ZNF330 / Fold change vs veh, ZNF330 / RFU, GPN3 / Fold change vs veh, GPN3 / RFU, C9orf123 / Fold change vs veh, C9orf123 / RFU, N4BP2L2 / Fold change vs veh, N4BP2L2 / RFU, ARFIP1 / Fold change vs veh, ARFIP1 / RFU, FAM179B / Fold change vs veh, FAM179B / RFU, BCL10 / Fold change vs veh, BCL10 / RFU, UHRF1BP1L / Fold change vs veh, UHRF1BP1L / RFU, BET1 / Fold change vs veh, BET1 / RFU, CNOT2 / Fold change vs veh, CNOT2 / RFU, ZNF268 / Fold change vs veh, ZNF268 / Fold change vs veh, ZNF507 / RFU, DGCR2 / Fold change vs veh, DGCR2 / RFU, WDSUB1 / Fold change vs veh, WDSUB1 / Fold change vs veh, HSP90B1 /// MIR3652 / RFU, ADSS / Fold change vs veh, ADSS / RFU, GK / Fold change vs veh, GK / RFU, ZNF148 / Fold change vs veh, ZNF148 / RFU, TAF9 / Fold change vs veh, TAF9 / RFU, SLC1A5 / Fold change vs veh, SLC1A5 / RFU, SLMO2 / Fold change vs veh, SLMO2 / RFU, ABCC4 / Fold change vs veh, ABCC4 / RFU, LOC101060439 /// RAP1B / Fold change vs veh, LOC101060439 /// RAP1B / RFU, RFX7 / Fold change vs veh, RFX7 / RFU, GTPBP10 / Fold change vs veh, GTPBP10 / RFU, CNEP1R1 / Fold change vs veh, CNEP1R1 / RFU, BIVM-ERCC5 /// ERCC5 / Fold change vs veh, BIVM-ERCC5 /// ERCC5 / RFU, ILF3 / Fold change vs veh, ILF3 / RFU 11762660_at / Fold change /veh 11762660_at / RFU VCAN (11757783_s_at) / Fold change /veh VCAN (11757783_s_at) / RFU DDX43 (11728927_at) / Fold change /veh DDX43 (11728927_at) / RFU KRT8 (11758188_x_at) / Fold change /veh KRT8 (11758188_x_at) / RFU NKD1 (11759106_at) / Fold change /veh NKD1 (11759106_at) / RFU SRD5A1 (11742802_a_at) / Fold change /veh SRD5A1 (11742802_a_at) / RFU TPSAB1 /// TPSB2 (11721975_s_at) / Fold change /veh TPSAB1 /// TPSB2 (11721975_s_at) / RFU GSTM3 (11746129_a_at) / Fold change /veh GSTM3 (11746129_a_at) / RFU IL23R (11737362_x_at) / Fold change /veh IL23R (11737362_x_at) / RFU TMEM51 (11727254_a_at) / Fold change /veh TMEM51 (11727254_a_at) / RFU PIWIL2 (11732686_x_at) / Fold change /veh PIWIL2 (11732686_x_at) / RFU ORM1 (11744905_x_at) / Fold change /veh ORM1 (11744905_x_at) / RFU CCDC152 (11743942_at) / Fold change /veh CCDC152 (11743942_at) / RFU ECM1 (11717891_a_at) / Fold change /veh ECM1 (11717891_a_at) / RFU IL23R (11748794_a_at) / Fold change /veh IL23R (11748794_a_at) / RFU TNFAIP8L3 (11732012_x_at) / Fold change /veh TNFAIP8L3 (11732012_x_at) / RFU MBOAT4 (11741988_at) / Fold change /veh MBOAT4 (11741988_at) / RFU 11764193_at / Fold change /veh 11764193_at / RFU TMEM53 (11763286_at) / Fold change /veh TMEM53 (11763286_at) / RFU MAGEB2 (11727129_at) / Fold change /veh MAGEB2 (11727129_at) / RFU TMEM200A (11744735_a_at) / Fold change /veh TMEM200A (11744735_a_at) / RFU CCDC152 (11751479_a_at) / Fold change /veh CCDC152 (11751479_a_at) / RFU FAM211A (11726209_a_at) / Fold change /veh FAM211A (11726209_a_at) / RFU RGS16 (11746705_a_at) / Fold change /veh RGS16 (11746705_a_at) / RFU VCAN (11755009_s_at) / Fold change /veh VCAN (11755009_s_at) / RFU RHOB (11743442_s_at) / Fold change /veh RHOB (11743442_s_at) / RFU RGS16 (11720943_a_at) / Fold change /veh RGS16 (11720943_a_at) / RFU RGS16 (11720944_at) / Fold change /veh RGS16 (11720944_at) / RFU, VPS4B / Fold change vs veh, VPS4B / RFU, CREB1 / Fold change vs veh, CREB1 / RFU, DNAJC13 / Fold change vs veh, DNAJC13 / RFU, GNAQ / Fold change vs veh, GNAQ / RFU, CDK5R1 / Fold change vs veh, CDK5R1 / RFU, ZRANB3 / Fold change vs veh, ZRANB3 / RFU, CUL4A / Fold change vs veh, CUL4A / RFU, CCNY / Fold change vs veh, CCNY / RFU, UFL1 / Fold change vs veh, UFL1 / RFU, COG3 / Fold change vs veh, COG3 / RFU, DIAPH2 / Fold change vs veh, DIAPH2 / RFU, SKA2 / Fold change vs veh, SKA2 / RFU, AFF3 / Fold change vs veh, AFF3 / RFU, LMF1 / Fold change vs veh, LMF1 / RFU, IPO11 / Fold change vs veh, IPO11 / RFU, DFFB / Fold change vs veh, DFFB / RFU, FOXP1 / Fold change vs veh, FOXP1 / RFU, CARD8 / Fold change vs veh, CARD8 / RFU, STRN3 / Fold change vs veh, STRN3 / RFU, ADK / Fold change vs veh, ADK / RFU, RASSF2 / Fold change vs veh, RASSF2 / RFU, WIPF1 / Fold change vs veh, WIPF1 / RFU, LARP1B / Fold change vs veh, LARP1B / RFU, RASA1 / Fold change vs veh, RASA1 / RFU, RB1 / Fold change vs veh, RB1 / RFU, PPFIA1 / Fold change vs veh, PPFIA1 / RFU, MAT2A / Fold change vs veh, MAT2A / RFU, CCT5 / Fold change vs veh, CCT5 / RFU, WDR92 / Fold change vs veh, WDR92 / RFU, CUX1 / Fold change vs veh, CUX1 / RFU, TTC7A / Fold change vs veh, TTC7A / RFU, TMEM135 / Fold change vs veh, TMEM135 / RFU, DEPTOR / Fold change vs veh, DEPTOR / RFU, CPM / Fold change vs veh, CPM / RFU, DNAJB6 / Fold change vs veh, DNAJB6 / RFU, CACNA2D3 / Fold change vs veh, CACNA2D3 / RFU, DTX4 / Fold change vs veh, DTX4 / RFU, TFCP2 / Fold change vs veh, TFCP2 / RFU, GMCL1 /// GMCL1P1 / Fold change vs veh, GMCL1 /// GMCL1P1 / RFU, AEBP2 / Fold change vs veh, AEBP2 / RFU, SNHG1 /// SNORD22 /// SNORD25 /// SNORD26 /// SNORD27 /// SNORD28 /// SNORD29 /// SNORD31 / Fold change vs veh, SNHG1 /// SNORD22 /// SNORD25 /// SNORD26 /// SNORD27 /// SNORD28 /// SNORD29 /// SNORD31 / Fold change (Aza/veh), C12orf56 (ProbeSet 11735607_a_at) / Fold change (ACY-1035/veh), C12orf56 (ProbeSet 11735607_a_at) / Fold change (Aza/veh), FGFR1OP (ProbeSet 11751329_s_at) / Fold change (ACY-1035/veh), FGFR1OP (ProbeSet 11751329_s_at) / Fold change (Aza/veh), VPS36 (ProbeSet 11739960_a_at) / Fold change (ACY-1035/veh), VPS36 (ProbeSet 11739960_a_at) / RFU SYPL1 (11715823_x_at) / Fold change /veh SYPL1 (11715823_x_at) / RFU IGFBP7 (11715501_s_at) / Fold change /veh IGFBP7 (11715501_s_at) / RFU REEP3 (11722064_at) / Fold change /veh REEP3 (11722064_at) / RFU IGLL1 (11728026_x_at) / Fold change /veh IGLL1 (11728026_x_at): dose or concentration left out as unconfirmed
Conditions: MV-4-11 cells, 48 hours

With `Nc1ncn([C@@H]2O[C@H](CO)[C@@H](O)[C@H]2O)c(=O)n1` [azacitidine] the “Fold change /veh A4GNT (11735810_at)” value was 0.90.
